Assay results as given in PMC11402040 (ESMO Open, 2024).

Legend:
[1] = cited from earlier work; for LFT elevations in the clinic: dose levels evaluated in the clinic
CYP3A = test: phase I Part 1B PK, CYP3A-mediated drug–drug interaction with enzalutamide; type: in vivo, human; conditions: coadministered enzalutamide 160 mg q.d.

| Molecule | bleeding in clinical studies [1] | LFT elevations in the clinic [1] | further results |
| --- | --- | --- | --- |
| bintrafusp alfa: bifunctional fusion protein targeting TGF-β and PD-L1 | Bleeding (including intratumoral bleeding) has been observed |  |  |
| Cc1cccc(-c2nn3c(c2-c2ccnc4ccc(C(N)=O)cc24)CCC3)n1 [galunisertib] |  | not demonstrated severe LFT elevations |  |
| CNC(=O)c1ccc(N2C(=S)N(c3ccc(C#N)c(C(F)(F)F)c3)C(=O)C2(C)C)cc1F [enzalutamide] |  |  | CYP3A4 enzyme induction effect on PF-06952229 (CYP3A): strong cytochrome P450 3A4 (CYP3A4) enzyme induction effect |
| fresolimumab: other TGF-β inhibitor in clinical studies | Bleeding (including intratumoral bleeding) has been observed |  |  |
| CC(C)(O)c1cc(Nc2cc(Oc3cn(C4CC4)nc3C3CCOCC3)ccn2)ccn1 [LY3200882] |  | not demonstrated severe LFT elevations |  |
